According to the supplement of paper PMC10307832:

What was measured:
Experiment in all cases: relative viability (nuclei count vs DMSO), 5 days (fraction); higher = more cells survive
[1] = tested on: UMC-11
Procedure, shortened: (§1)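 Lung cancer cell lines were seeded in 1536-well plates and dosed by pin tool the next day, with either a single drug or a fixed anchor-drug dose combined with five library-drug doses (not always all listed) spaced in √10 steps. Five days later, one step fixed the cells and stained their nuclei (final 0.05% Triton X-100, 1% formaldehyde, 1 ug/ml Hoechst), and nuclei were counted on 4× images. Relative viability is the nuclei count in treated wells divided by the count in vehicle wells, and each value is the median of duplicate plates.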

[2] = tested on: NCI-H1650
Procedure, shortened: as §1

[3] = tested on: H3255
Procedure, shortened: as §1

[4] = tested on: HCC-15
Procedure, shortened: as §1

[5] = tested on: 201T
Procedure, shortened: as §1

[6] = tested on: NCI-H322M
Procedure, shortened: as §1

[7] = tested on: NCI-H2023
Procedure, shortened: as §1

[8] = tested on: NCI-H3122
Procedure, shortened: as §1

[9] = tested on: NCI-H520
Procedure, shortened: as §1

[10] = tested on: NCI-H2170
Procedure, shortened: as §1

[11] = tested on: NCI-H1734
Procedure, shortened: as §1

[12] = tested on: NCI-H1793
Procedure, shortened: as §1

[13] = tested on: NCI-H2347
Procedure, shortened: as §1

[14] = tested on: NCI-H647
Procedure, shortened: as §1

[15] = tested on: PC-14
Procedure, shortened: as §1

[16] = tested on: EPLC-272H
Procedure, shortened: as §1

[17] = tested on: LOU-NH91
Procedure, shortened: as §1

[18] = tested on: COR-L23
Procedure, shortened: as §1

[19] = tested on: NCI-H2405
Procedure, shortened: as §1

[20] = tested on: NCI-H1563
Procedure, shortened: as §1

COc1cc2nccc(Oc3ccc(NC(=O)Nc4cc(C)on4)c(Cl)c3)c2cc1OC [Tivozanib] + CS(=O)(=O)CCNCc1ccc(-c2ccc3ncnc(Nc4ccc(OCc5cccc(F)c5)c(Cl)c4)c3c2)o1 [Lapatinib] (partner 2 µM)
relative viability ([1]; first compound 0.005 µM): 0.901 | relative viability ([1]; first compound 0.01581 µM): 0.983 | relative viability ([1]; first compound 0.05 µM): 1.01 | relative viability ([1]; first compound 0.5 µM): 0.839 | relative viability ([2]; first compound 0.005 µM): 0.707 | relative viability ([2]; first compound 0.01581 µM): 0.845 | relative viability ([2]; first compound 0.05 µM): 0.836 | relative viability ([2]; first compound 0.1581 µM): 0.717 | relative viability ([2]; first compound 0.5 µM): 0.721 | relative viability ([3]; first compound 0.005 µM): 0.247 | relative viability ([3]; first compound 0.01581 µM): 0.223 | relative viability ([3]; first compound 0.05 µM): 0.23 | relative viability ([3]; first compound 0.1581 µM): 0.232 | relative viability ([3]; first compound 0.5 µM): 0.211 | relative viability ([4]; first compound 0.005 µM): 0.83 | relative viability ([4]; first compound 0.01581 µM): 0.899 | relative viability ([4]; first compound 0.05 µM): 0.795 | relative viability ([4]; first compound 0.1581 µM): 0.977 | relative viability ([4]; first compound 0.5 µM): 0.831 | relative viability ([5]; first compound 0.005 µM): 1.04 | relative viability ([5]; first compound 0.01581 µM): 1.06 | relative viability ([5]; first compound 0.05 µM): 1.01 | relative viability ([5]; first compound 0.1581 µM): 0.988 | relative viability ([5]; first compound 0.5 µM): 1.07 | relative viability ([6]; first compound 0.005 µM): 0.574 | relative viability ([6]; first compound 0.01581 µM): 0.649 | relative viability ([6]; first compound 0.05 µM): 0.615 | relative viability ([6]; first compound 0.1581 µM): 0.525 | relative viability ([6]; first compound 0.5 µM): 0.65 | relative viability ([7]; first compound 0.005 µM): 0.731 | relative viability ([7]; first compound 0.01581 µM): 0.97 | relative viability ([7]; first compound 0.05 µM): 0.878 | relative viability ([7]; first compound 0.1581 µM): 0.634 | relative viability ([7]; first compound 0.5 µM): 0.768 | relative viability ([8]; first compound 0.005 µM): 0.972 | relative viability ([8]; first compound 0.01581 µM): 0.979 | relative viability ([8]; first compound 0.05 µM): 0.989 | relative viability ([8]; first compound 0.1581 µM): 1.16 | relative viability ([8]; first compound 0.5 µM): 1.03 | relative viability ([9]; first compound 0.005 µM): 0.763 | relative viability ([9]; first compound 0.01581 µM): 0.912 | relative viability ([9]; first compound 0.05 µM): 0.87 | relative viability ([9]; first compound 0.1581 µM): 0.82 | relative viability ([9]; first compound 0.5 µM): 0.757 | relative viability ([10]; first compound 0.005 µM): 0.252 | relative viability ([10]; first compound 0.01581 µM): 0.296 | relative viability ([10]; first compound 0.05 µM): 0.266 | relative viability ([10]; first compound 0.5 µM): 0.289 | relative viability ([11]; first compound 0.005 µM): 1.03 | relative viability ([11]; first compound 0.01581 µM): 1.05 | relative viability ([11]; first compound 0.05 µM): 1.17 | relative viability ([11]; first compound 0.1581 µM): 0.814 | relative viability ([11]; first compound 0.5 µM): 1.01 | relative viability ([12]; first compound 0.005 µM): 0.619 | relative viability ([12]; first compound 0.01581 µM): 0.478 | relative viability ([12]; first compound 0.05 µM): 0.696 | relative viability ([12]; first compound 0.5 µM): 0.867 | relative viability ([13]; first compound 0.005 µM): 0.881 | relative viability ([13]; first compound 0.01581 µM): 0.93 | relative viability ([13]; first compound 0.05 µM): 0.963 | relative viability ([13]; first compound 0.1581 µM): 1.11 | relative viability ([13]; first compound 0.5 µM): 0.907 | relative viability ([14]; first compound 0.005 µM): 0.935 | relative viability ([14]; first compound 0.01581 µM): 0.971 | relative viability ([14]; first compound 0.05 µM): 0.98 | relative viability ([14]; first compound 0.1581 µM): 0.866 | relative viability ([14]; first compound 0.5 µM): 0.966 | relative viability ([15]; first compound 0.005 µM): 0.245 | relative viability ([15]; first compound 0.01581 µM): 0.325 | relative viability ([15]; first compound 0.05 µM): 0.308 | relative viability ([15]; first compound 0.1581 µM): 0.255 | relative viability ([15]; first compound 0.5 µM): 0.332 | relative viability ([16]; first compound 0.005 µM): 0.854 | relative viability ([16]; first compound 0.01581 µM): 0.844 | relative viability ([16]; first compound 0.05 µM): 0.938 | relative viability ([16]; first compound 0.1581 µM): 0.806 | relative viability ([16]; first compound 0.5 µM): 0.671 | relative viability ([17]; first compound 0.005 µM): 0.704 | relative viability ([17]; first compound 0.01581 µM): 0.772 | relative viability ([17]; first compound 0.05 µM): 0.758 | relative viability ([17]; first compound 0.1581 µM): 0.62 | relative viability ([17]; first compound 0.5 µM): 0.794 | relative viability ([18]; first compound 0.005 µM): 0.902 | relative viability ([18]; first compound 0.01581 µM): 0.99 | relative viability ([18]; first compound 0.05 µM): 0.991 | relative viability ([18]; first compound 0.1581 µM): 0.928 | relative viability ([18]; first compound 0.5 µM): 0.67 | relative viability ([19]; first compound 0.005 µM): 0.972 | relative viability ([19]; first compound 0.01581 µM): 1.28 | relative viability ([19]; first compound 0.05 µM): 1.1 | relative viability ([19]; first compound 0.1581 µM): 1.01 | relative viability ([19]; first compound 0.5 µM): 0.572 | relative viability ([20]; first compound 0.005 µM): 0.848 | relative viability ([20]; first compound 0.01581 µM): 0.985 | relative viability ([20]; first compound 0.05 µM): 0.938 | relative viability ([20]; first compound 0.1581 µM): 0.856 | relative viability ([20]; first compound 0.5 µM): 0.796
